From patent US12276039B2, “Crystal of europium compound and method for producing crystal of europium compound” (OHARA INC., priority 2020, dated 2025) come the findings set out here.

This data set concerns Hela cancer cells. Put plainly: Toxicity evaluation: cell density of Hela cancer cells cultured with FA (folic acid)-modified particles. Format: cell-based. Particulars: FA-modified particles on Hela cells, FIG. 9. The protocol:
Particles of Examples 1 to 3 or Comparative Examples 1 to 2 were subjected to toxicity evaluation by cancer cell imaging and fluorescence intensity measurement by the following methods.
To 250 mg of the particles of Examples 1 to 3 or Comparative Examples 1 to 2, 12 ml of an HCl aqueous solution (pH=2) was added, and ultrasonic treatment was carried out. Next, a solution containing 0.78 ml (3.3 mmol) of 3-aminopropyltriethoxysilane (APTES) in 5 mL of ethanol was prepared and added to the ultrasonic-treated solution to obtain a mixed solution. The mixed solution was stirred for 20 hours at 40° C. (pH<6.5). […]
After the above cells were cultured, a polystyrene dish (TCPS) including cells was washed twice with 1 ml of phosphate buffered saline (PBS), then FA (folic acid)-modified particles which had not taken up by the cells were removed, 0.1 ml of 0.05% Trypsin-EDTA was placed in a TCPS including cells, followed by allowing to stand still in a CO2 incubator for 12 minutes, and cells were peeled off from TCPS. […] Thereafter, the supernatant was discarded, 20 ml of medium was added to the tube, pipetting was carried out about 20 times, 1 ml was aliquoted into 15 ml-tubes, the cell suspension was placed into a disposable hemocytometer using a micropipette outside a clean bench, the cell number was confirmed under a microscope, and the average value (cell/cm^2) was calculated. […]

SMILES strings stand for the structures.

In the case of `O.O.O.O.O.O.[Cl][Eu]([Cl])[Cl]` [Comparative Example 2, Europium chloride hexahydrate], the cytotoxicity result is listed as “cytotoxicity due to the elution”. Moreover, the “cell proliferation behavior (average cell density)” value (3, 12, 24, 36 and 48 hours after spraying) is recorded as “a normal cell proliferation behavior was not observed”.
